# US20100329994A1, “Use of Deuterium Dioxide for Treating Hyperproliferative Skin Diseases” (priority 2006, published 2010)
# Key:
# [1] = system: normal human epithelial cell lines from the skin (TE 353.sk); assay: Proliferation rate (average cell-doubling rate) of normal human skin epithelial cell line in culture; details: 30% D2O based on the complete medium, counted from 48 h then every 24 h for a week, 6 wells
# Source text: (§1) The influence of D2O and H2O on the proliferation rate of carcinoma cells and normal cells was investigated on cell cultures. For this purpose, human TE 354.T epithelial cell lines derived from the human basal-cell carcinoma (American Type Culture Collection (ATCC), Rockville, USA) were used. Normal human epithelial cell lines from the skin of the same individual (TE 353.sk from ATCC) were used as control. The cells were transferred into 96-well cell culture plates (10^4 cells per well) and allowed to grow to subconfluence. The medium used for this purpose was Dulbecco's modified Eagles medium (DMEM) to which 10% heat-deactivated fetal calf serum (LGC Promochem, Wesel, Germany) was added. The medium was changed, for the first time 2 days after introduction of the cells and then every 48 hours. At the subconfluent stage of the cell culture of the two cell lines, 30% D2O, based on the complete medium, was added to the medium. […] From these values, the average cell-doubling rate n was determined from the gradient of a graphical plot of log {cell count} vs. time in accordance with the equation n=3.32 (log Nt−log N0). Here, Nt is the cell count measured after time t, and N0 is the cell count determined at the time when D2O or H2O was added (zero point measurement). The average cell-doubling rate was determined by averaging the results over in each case 6 wells per time point.
# [2] = system: human TE 354.T epithelial cell lines derived from the human basal-cell carcinoma; assay: Proliferation rate (average cell-doubling rate) of human basal-cell carcinoma cell line in culture; format: cell-based
# Source text: as §1
smiles,measurement,setting,value
"[2H]O[2H] [D2O, deuterium dioxide]","average cell-doubling rate <n> D2O, normal cells",[1],0.41 ± 0.04
same,reduction in <n> for the carcinoma cells compared with normal cells,"[2]; 30% D2O added to medium, versus H2O",disproportionately large reduction
same,"average cell-doubling rate <n> D2O, carcinoma cells","[2]; 30% D2O based on the complete medium, TE 354.T, counted from 48 h then every 24 h for a week, 6 wells",0.23 ± 0.02
